Assays:
PAO1 biofilm = experiment: In vitro MBEC antibiofilm assay; assay type: cell-based, P. aeruginosa; conditions: 5 μg/mL and 15 μg/mL TOB; 24 h
Experimental: The pegs on lid of the MBEC Assay® were submerged into the bacterial suspension, with column 12 containing sterile LB broth as a negative control. The plate was incubated at 37° C. on a rotating gyrator for 24 h to form biofilm on the pegs. After 24 h, the peg lid was removed and transferred into another 96-well microtiter plate containing sterile water for 30 seconds before being transferred into a treatment plate. The peg lid in the treatment plate was incubated for 24 h at 37° C. on the rotating gyrator. In the first study, the effect of concentration variation of TOB in MO-LCNPs was determined. […] The respective controls included unloaded formulations MO-LCNP and […] at equivalent concentrations and 0.9% NaCl. […] In the second study, the difference in effect of MO- and […] compared to liposomes containing TOB was determined. […] The final concentration of MO and PHY was 0.25 mg/mL. Liposomes were prepared as described above. In the third study, TOB, AMI and GEN as unformulated solutions and loaded in MO-LCNPs were compared as treatments against PAO1 biofilms in the MBEC Assay®. The concentration of each antibiotic was 6 μg/mL. […] In all four different studies, the treatments were incubated with the PAO1 biofilm grown on the MBEC Assay® on a rotating plate at 37° C. After 24 h incubation, the peg lid was transferred to a fresh plate containing sterilized water to inhibit treatments. […]

[1] = tested on: PAO1 biofilm (72 h, transferred); experiment: Transferred biofilm model; assay type: cell-based, P. aeruginosa; conditions: 15 μg/mL TOB; 0.05 mg/mL MO-LCNPs; 24 h
Experimental: Taking into account the toxicity data of the MO-LCNPs, additional biofilm activity studies were conducted to ensure a non-toxic concentration of MO-LCNPs maintained the activity of TOB in the MBEC Assay® PAO1 biofilm model. A variation in this biofilm model was employed to contrast the effect of the MO-LCNPs compared to the standard, MBEC® model. Briefly, from an overnight culture, PAO1 was diluted in M63 media to an OD of 0.01 in 500 μL in 24 well plates and incubated for 72 h at 37° C. to form biofilms. Breath seals were used to permit gas exchange during the 72 h incubation period. The 72 h biofilms were then washed with 200 μL PBS to remove planktonic bacteria. Then, using 500 μL of M63 buffer, the biofilms was scraped off from the bottom of the 24-well plate using a 1 mL pipette tip and transferred into a fresh plate. This formed microcolonies of biofilm that closely resembles the clinical environment. The treatments were then added on top of the biofilms and incubated for a further 24 h at 37° C. The treatments included 15 μg/mL of an unformulated TOB solution and TOB loaded in the MO-LCNPs
The amount of Pluronic F-127 in the MO-LCNPs TOB formulation was also varied to determine the effect the surface stabiliser had on the antimicrobial effect. […]

PAO1 biofilm on CFBE41o− = experiment: Chronic infection model CFBE41o− and PAO1: bacterial counts; assay type: cell-based, P. aeruginosa
Experimental: A chronic infection model was developed which cultures P. aeruginosa biofilm on top of the bronchial CF epithelium cells (CFBE41o−) at an air-liquid interface. It is a biologically relevant, 3D model that resembles the infected lungs of CF patients.
To assess the activity and toxicity or formulations, the CFBE41o− cell line was seeded on Transwell® inserts (0.05×10^6) at the liquid-liquid interface (500 μL apical and 1500 μL basolateral) on day 0. On day 3, the apical side media was removed, and the basolateral side was replaced with 500 μL of media. On day 7, the transepithelial electrical resistance (TEER) was measured through adding 500 μL to the apical chamber of one well and replacing the basolateral side with 1500 μL. The transferred biofilm model, described above, was employed to transfer the PAO1 biofilm on top of the CFBE41o− cell line in the apical compartment of the Transwells® on day 7. After 1 h incubation, the supernatant was removed as the biofilm has settled onto the cells.
Using the Aerogen® Pro (vibrating mesh nebuliser) and nebulisation chamber, the treatments were then nebulised on top of the biofilm and CFBE41o− cell layer. TOB as an unformulated solution or loaded in the MO-LCNPs were dosed at 10 μg, which was equivalent to 100 μL of 3.32 mg/mL for unformulated TOB and 2.50 mg/mL for MO-LCNPs loaded with TOB. The treatments were prepared by diluting the stock solution/LCNPs suspension to the required concentration in KRB buffer. Each time the nebuliser was first rinsed with KRB buffer and the Transwell® to be dosed was transfered to a clean 12 well plate. The treatment was nebulised following a 30 second deposition waiting time. After all treatments were dosed, the Transwells® were replaced to their original well that included fresh MEM media supplemented with 1% arginine (500 μL) and incubated for the required time at 37° C.
At the time points 24 h and 48 h, different read outs were obtained, including bacterial counts, viability of cells and barrier integrity. […] The plates were incubated for 18 h at 30° C. before the colonies of bacteria were counted.

[2] = aerosolised, CF patients; cited from earlier work

## NC[C@H]1O[C@H](O[C@H]2[C@H](O)[C@@H](O[C@H]3O[C@H](CO)[C@@H](O)[C@H](N)[C@H]3O)[C@H](N)C[C@@H]2N)[C@H](N)C[C@@H]1O [unformulated TOB, tobramycin]
PAO1 biofilm
  reduction of PAO1 load compared to the no treatment control: 2 log
[1]
  reduction in PAO1 load: two
PAO1 biofilm on CFBE41o−; 24 h after nebulisation, biofilm of 4×10^8 CFU/mL
  P. aeruginosa remaining: 7.4×10^3 CFU/mL
PAO1 biofilm on CFBE41o−; 48 h, one nebulised dose
  P. aeruginosa remaining: 1.2×10^3 CFU/mL
PAO1 biofilm on CFBE41o−; 48 h, two nebulised doses
  P. aeruginosa remaining: 5.4×10^1 CFU/mL
[2]
  bioavailability: 9.13%

From patent publication US12569508B2, “Antimicrobial compositions and methods of use” (priority 2020, dated 2026)
